# Read-outs that look alike come from different tables or passages of the source.
# Key:
# kinase enzymes [1] = molecular target: T1, kinase enzymes (Homo sapiens, UniProt P42336); test: Enzyme binding assay (KINOMEscan, DiscoveRx), further kinases of Table A; settings: PIK3Cα_h
# T1 construct: purchased DiscoveRx Corporation, San Diego (contract service, KINOMEscan)
# Method in brief: (§1)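 Affinity for each kinase was determined by KINOMEscan profiling.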
# kinase enzymes [2] = molecular target: T2, kinase enzymes (Homo sapiens, UniProt P42345); test: as above; settings: MTOR_h
# T2 construct: purchased DiscoveRx Corporation, San Diego (contract service, KINOMEscan)
# Method in brief: as §1
# kinase enzymes [3] = molecular target: T3, kinase enzymes (Homo sapiens, UniProt P48736); test: as above; settings: PIK3Cγ_h
# T3 construct: purchased DiscoveRx Corporation, San Diego (contract service, KINOMEscan)
# T3 sequence (P48736 whole entry): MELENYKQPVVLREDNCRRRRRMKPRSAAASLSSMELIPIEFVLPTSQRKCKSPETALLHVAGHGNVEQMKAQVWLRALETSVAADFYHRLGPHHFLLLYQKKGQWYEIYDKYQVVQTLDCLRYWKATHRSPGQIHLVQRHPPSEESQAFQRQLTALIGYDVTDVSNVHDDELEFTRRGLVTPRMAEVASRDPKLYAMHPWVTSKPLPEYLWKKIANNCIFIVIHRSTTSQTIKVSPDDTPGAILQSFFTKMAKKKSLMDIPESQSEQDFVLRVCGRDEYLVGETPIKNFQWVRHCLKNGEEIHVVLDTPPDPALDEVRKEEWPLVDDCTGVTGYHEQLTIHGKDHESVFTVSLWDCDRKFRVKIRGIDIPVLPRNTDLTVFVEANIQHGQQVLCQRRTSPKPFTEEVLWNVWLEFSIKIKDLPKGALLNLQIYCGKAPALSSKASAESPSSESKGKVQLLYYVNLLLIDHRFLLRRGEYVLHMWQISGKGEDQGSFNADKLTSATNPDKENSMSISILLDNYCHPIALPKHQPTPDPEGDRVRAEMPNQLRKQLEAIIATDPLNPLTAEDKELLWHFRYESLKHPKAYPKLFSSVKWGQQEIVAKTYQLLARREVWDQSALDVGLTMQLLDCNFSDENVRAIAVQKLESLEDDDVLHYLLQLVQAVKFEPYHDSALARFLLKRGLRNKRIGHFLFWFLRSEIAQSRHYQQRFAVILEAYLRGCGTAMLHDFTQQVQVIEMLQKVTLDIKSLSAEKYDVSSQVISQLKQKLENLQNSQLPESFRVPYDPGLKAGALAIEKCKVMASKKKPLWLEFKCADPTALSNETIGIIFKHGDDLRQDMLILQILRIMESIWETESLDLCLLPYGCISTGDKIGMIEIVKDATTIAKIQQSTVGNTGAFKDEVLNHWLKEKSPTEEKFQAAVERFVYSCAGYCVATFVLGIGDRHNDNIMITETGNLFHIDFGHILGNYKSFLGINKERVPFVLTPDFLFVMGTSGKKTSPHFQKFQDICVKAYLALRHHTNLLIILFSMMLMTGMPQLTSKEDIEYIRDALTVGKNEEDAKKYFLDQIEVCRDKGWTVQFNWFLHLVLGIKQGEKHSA
# Method in brief: as §1
# PI3Kβ = molecular target: T4, PI3Kβ (Homo sapiens, UniProt P42338); test: Enzyme binding assay (KINOMEscan, DiscoveRx); settings: PIK3Cβ_h, read-out: Kd PIK3Cβ_h
# T4 construct: purchased DiscoveRx Corporation, San Diego (contract service, KINOMEscan)
# T4 sequence (P42338 whole entry): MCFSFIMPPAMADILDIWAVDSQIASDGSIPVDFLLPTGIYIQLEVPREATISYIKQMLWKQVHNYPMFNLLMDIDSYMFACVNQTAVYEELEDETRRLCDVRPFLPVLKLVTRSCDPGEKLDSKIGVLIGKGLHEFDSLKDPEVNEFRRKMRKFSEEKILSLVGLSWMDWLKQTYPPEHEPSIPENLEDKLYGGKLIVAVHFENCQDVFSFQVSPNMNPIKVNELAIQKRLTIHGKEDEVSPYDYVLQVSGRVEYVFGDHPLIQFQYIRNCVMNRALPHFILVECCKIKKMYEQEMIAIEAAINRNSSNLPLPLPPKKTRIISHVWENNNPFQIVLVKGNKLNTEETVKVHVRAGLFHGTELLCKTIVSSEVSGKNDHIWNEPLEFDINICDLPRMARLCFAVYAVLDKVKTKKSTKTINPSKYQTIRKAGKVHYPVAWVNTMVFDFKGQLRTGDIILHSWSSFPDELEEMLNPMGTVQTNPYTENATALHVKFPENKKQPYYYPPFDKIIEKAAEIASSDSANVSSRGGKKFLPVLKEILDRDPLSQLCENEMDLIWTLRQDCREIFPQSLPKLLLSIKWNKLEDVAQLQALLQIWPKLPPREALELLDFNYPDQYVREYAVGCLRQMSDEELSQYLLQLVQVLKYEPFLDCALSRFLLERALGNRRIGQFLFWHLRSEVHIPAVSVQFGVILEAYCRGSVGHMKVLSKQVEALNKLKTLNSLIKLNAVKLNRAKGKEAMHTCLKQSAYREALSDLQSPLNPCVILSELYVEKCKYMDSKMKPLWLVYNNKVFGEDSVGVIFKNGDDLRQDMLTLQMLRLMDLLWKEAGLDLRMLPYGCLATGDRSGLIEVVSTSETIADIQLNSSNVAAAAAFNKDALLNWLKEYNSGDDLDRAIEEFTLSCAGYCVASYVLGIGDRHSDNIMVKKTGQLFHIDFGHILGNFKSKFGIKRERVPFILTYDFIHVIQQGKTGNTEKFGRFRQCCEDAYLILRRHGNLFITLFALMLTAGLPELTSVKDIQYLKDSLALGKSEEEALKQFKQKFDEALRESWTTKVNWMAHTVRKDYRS
# Method in brief: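 Values are Kd in nM, the binding constant of each inhibitor for the kinase, obtained from a KINOMEscan enzyme binding assay.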
# [4] = tested on: Akt phosphorylated at Ser473 in PC-3 cells; test: Cellular assay: phosphorylation of Akt at Ser473 in PC-3 cells (MSD ELISA); assay type: cell-based; settings: PC-3 cells, 60 min compound incubation, MSD ELISA, read-out: IC50 pAkt_S473
# Method in brief: (§2)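 After lysis of treated cells (60 min, 37° C, 0.3% DMSO), phospho-Akt levels were measured by MSD electrochemiluminescence ELISA. Potency was derived from concentration-response curves fitted over five concentrations.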
# PI3Kδ = molecular target: T5, PI3Kδ (Homo sapiens, UniProt O00329); test: Enzyme binding assay (KINOMEscan, DiscoveRx); settings: PIK3Cδ_h
# T5 construct: purchased DiscoveRx Corporation, San Diego (contract service, KINOMEscan)
# T5 sequence (O00329 1-1044): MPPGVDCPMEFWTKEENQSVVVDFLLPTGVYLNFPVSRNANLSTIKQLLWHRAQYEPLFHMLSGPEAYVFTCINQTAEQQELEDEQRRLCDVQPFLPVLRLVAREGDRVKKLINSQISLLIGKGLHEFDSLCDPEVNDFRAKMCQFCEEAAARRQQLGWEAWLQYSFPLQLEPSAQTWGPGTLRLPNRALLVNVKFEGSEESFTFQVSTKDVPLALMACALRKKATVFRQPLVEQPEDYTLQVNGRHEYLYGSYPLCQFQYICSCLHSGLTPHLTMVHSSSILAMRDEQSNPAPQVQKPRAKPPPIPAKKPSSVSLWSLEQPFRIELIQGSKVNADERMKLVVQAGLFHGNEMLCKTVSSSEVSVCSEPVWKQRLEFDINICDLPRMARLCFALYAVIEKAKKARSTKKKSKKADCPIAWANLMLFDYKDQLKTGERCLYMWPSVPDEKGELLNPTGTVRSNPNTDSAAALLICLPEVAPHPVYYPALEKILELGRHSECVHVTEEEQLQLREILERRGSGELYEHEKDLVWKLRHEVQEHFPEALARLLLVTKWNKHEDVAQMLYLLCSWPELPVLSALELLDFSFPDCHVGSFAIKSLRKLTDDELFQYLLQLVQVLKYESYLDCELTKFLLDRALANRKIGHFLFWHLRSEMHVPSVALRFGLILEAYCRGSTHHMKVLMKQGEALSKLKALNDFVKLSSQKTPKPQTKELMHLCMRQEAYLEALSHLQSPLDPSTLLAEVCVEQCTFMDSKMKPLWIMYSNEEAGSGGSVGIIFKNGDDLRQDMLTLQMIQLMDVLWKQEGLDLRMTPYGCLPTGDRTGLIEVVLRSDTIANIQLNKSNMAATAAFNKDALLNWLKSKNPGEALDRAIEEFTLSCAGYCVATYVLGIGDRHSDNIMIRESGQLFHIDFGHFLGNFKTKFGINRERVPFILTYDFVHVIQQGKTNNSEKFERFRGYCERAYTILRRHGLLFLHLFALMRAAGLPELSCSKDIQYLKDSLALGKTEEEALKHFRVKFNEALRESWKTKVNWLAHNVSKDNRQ
# Method in brief: as §1
# [5] = tested on: Akt phosphorylated at Thr308 in PC-3 cells; test: Cellular assay: phosphorylation of Akt at Thr308 in PC-3 cells (MSD ELISA); assay type: cell-based; settings: PC-3 cells, 60 min compound incubation, MSD ELISA, read-out: IC50 pAkt_Thr308
# Method in brief: as §2
# T1 sequence (P42336 whole entry): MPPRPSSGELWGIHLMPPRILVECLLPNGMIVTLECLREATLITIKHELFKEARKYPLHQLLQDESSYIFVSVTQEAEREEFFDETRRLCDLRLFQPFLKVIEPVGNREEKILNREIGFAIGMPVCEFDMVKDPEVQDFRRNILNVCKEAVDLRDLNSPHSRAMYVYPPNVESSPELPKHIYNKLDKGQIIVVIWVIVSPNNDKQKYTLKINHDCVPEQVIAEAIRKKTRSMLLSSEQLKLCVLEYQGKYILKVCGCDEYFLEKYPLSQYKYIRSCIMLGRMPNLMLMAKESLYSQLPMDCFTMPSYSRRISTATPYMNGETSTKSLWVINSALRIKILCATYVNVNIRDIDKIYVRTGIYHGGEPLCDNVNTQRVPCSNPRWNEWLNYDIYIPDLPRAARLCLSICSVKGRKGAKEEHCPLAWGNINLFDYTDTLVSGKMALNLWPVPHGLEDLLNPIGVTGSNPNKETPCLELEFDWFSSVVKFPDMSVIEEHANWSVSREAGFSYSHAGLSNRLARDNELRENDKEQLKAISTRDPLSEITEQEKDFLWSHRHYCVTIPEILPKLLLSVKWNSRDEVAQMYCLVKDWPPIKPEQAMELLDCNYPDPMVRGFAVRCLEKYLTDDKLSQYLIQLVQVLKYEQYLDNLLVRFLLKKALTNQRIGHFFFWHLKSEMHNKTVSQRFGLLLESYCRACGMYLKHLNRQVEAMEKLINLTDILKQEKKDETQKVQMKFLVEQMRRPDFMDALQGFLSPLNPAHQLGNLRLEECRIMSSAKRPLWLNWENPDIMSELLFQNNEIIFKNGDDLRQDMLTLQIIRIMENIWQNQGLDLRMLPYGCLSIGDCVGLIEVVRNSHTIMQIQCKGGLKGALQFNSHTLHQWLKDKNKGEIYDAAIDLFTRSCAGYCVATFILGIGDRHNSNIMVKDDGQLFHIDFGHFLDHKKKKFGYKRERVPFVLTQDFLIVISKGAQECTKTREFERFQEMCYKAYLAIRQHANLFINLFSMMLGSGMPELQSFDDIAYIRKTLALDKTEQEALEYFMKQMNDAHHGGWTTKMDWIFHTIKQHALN
Compound,Kd (kinase enzymes [1]) [µM],Kd (kinase enzymes [2]) [µM],Kd (kinase enzymes [3]) [µM],Kd (PI3Kβ) [µM],melting point [°C],"IC50 ([4]; Homo sapiens, PC-3, 1 h) [µM]",Kd (PI3Kδ) [µM],"IC50 ([5]; Homo sapiens, PC-3, 1 h) [µM]",IC50 [4] [µM],IC50 [5] [µM]
"CC(Nc1cc(F)cc(F)c1)c1cc(C(=O)O)cc2ncc(N3CCOCC3)nc12 (single isomer, unassigned) [Compound 83b]",0.17,1.29,0.562,0.001,180,> 0.513,0.129,> 0.513,–,–
"CC(Oc1cccc(F)c1)c1cc(C(=O)N2CCC[C@H]2CO)cc2ncc(N3CCOCC3)nc12 (single isomer, unassigned) [Compound 86]",3.47,> 30.2,21.4,0.015,76,0.513,0.537,0.263,–,–
"CC(Oc1cccc(F)c1)c1cc(C(=O)N2CCC[C@H]2CO)cc2ncc(N3CCOCC3)nc12 (single isomer, unassigned) [Compound 87]",22.9,> 30.2,> 30.2,1.38,74,–,9.55,–,> 0.513,> 0.513
"CCN1CCN(C(=O)c2cc(C(C)Nc3cccc(F)c3)c3nc(N4CCOCC4)cnc3c2)CC1 (single isomer, unassigned) [Compound 113]",> 30.2,> 30.2,> 10,1.02,307,–,> 30.2,–,> 0.513,> 0.513
"CCN1CCN(C(=O)c2cc(C(C)Nc3cccc(F)c3)c3nc(N4CCOCC4)cnc3c2)CC1 (single isomer, unassigned) [Compound 114]",1.62,> 30.2,6.92,0.001,303,–,0.186,–,0.05,0.018
"CC(Nc1cccc(F)c1)c1cc(C(=O)N2CCC[C@H]2CO)cc2ncc(N3CCOCC3)nc12 (single isomer, unassigned) [Compound 116]",> 30.2,> 30.2,> 30.2,2.88,332,–,≥ 30.2,–,> 0.513,> 0.513
"Cc1cccc(N(C)C(C)c2cc(C(=O)N(C)C)cc3ncc(N4CCOCC4)nc23)c1 (single isomer, unassigned) [Compound 127]",6.46,25.7,21.9,0.032,80,~0.457,2.29,0.331,–,–
"CNCCN(C)C(=O)c1cc(C(C)Nc2cc(F)cc(F)c2)c2nc(N3CCOCC3)cnc2c1 (single isomer, unassigned) [Compound 137]",0.138,> 30.2,0.501,0.0001,80,–,0.009,–,0.001,0.001
"CC(c1cc(C(=O)N(C)C)cc2ncc(N3CCOCC3)nc12)N(C)c1cccc(Cl)c1 (single isomer, unassigned) [Compound 140]",14.8,> 30.2,25.1,5.13,80,0.479,15.8,> 0.513,–,–
"CC(Nc1cc(F)cc(F)c1)c1cc(CN2CC3(C2)CS(=O)(=O)C3)cc2ncc(N3CCOCC3)nc12 (single isomer, unassigned) [Compound 160]",0.813,19.5,9.77,0.002,229,–,0.575,–,0.058,0.023
"CC(Nc1cc(F)cc(F)c1)c1cc(CN2CC3(C2)CS(=O)(=O)C3)cc2ncc(N3CCOCC3)nc12 (single isomer, unassigned) [Compound 161]",> 30.2,> 30.2,> 30.2,0.776,228,–,> 30.2,–,> 0.513,> 0.513
"CNCCNC(=O)c1cc(C(C)Oc2cc(F)cc(F)c2)c2nc(N3CCOCC3)cnc2c1 (single isomer, unassigned) [Compound 165]",1.78,14.1,5.49,0.0003,80,–,0.182,–,0.045,0.011

# More lines, now with the values ahead:
Kd (kinase enzymes [1]) [µM],Kd (kinase enzymes [2]) [µM],Kd (kinase enzymes [3]) [µM],Kd (PI3Kβ) [µM],melting point [°C],"IC50 ([4]; Homo sapiens, PC-3, 1 h) [µM]",Kd (PI3Kδ) [µM],"IC50 ([5]; Homo sapiens, PC-3, 1 h) [µM]",IC50 [4] [µM],IC50 [5] [µM],Compound
0.339,19.1,1.1,0.002,80,~0.045,0.148,0.023,–,–,"C[C@H](CO)NC(=O)c1cc(C2CCCN2c2cc(F)cc(F)c2)c2nc(N3CCOCC3)cnc2c1 (single isomer, unassigned) [Compound 70]"
0.363,> 30.2,0.646,0.0003,80,~0.076,0.1,~0.051,–,–,"OC[C@@H]1CCCN1Cc1cc(C2CCCN2c2cc(F)cc(F)c2)c2nc(N3CCOCC3)cnc2c1 (single isomer, unassigned) [Compound 77]"
3.09,3.09,2.69,0.158,157,–,4.9,–,> 0.513,> 0.513,"CC(Nc1cc(F)cc(F)c1)c1cc(C(=O)O)cc2ncc(N3CCOCC3)nc12 (single isomer, unassigned) [Compound 83c]"
0.079,21.4,0.178,0.0001,80,–,0.029,0.012,0.008,–,"OC(CN1CCC1)c1cc(C2CCCN2c2cc(F)cc(F)c2)c2nc(N3CCOCC3)cnc2c1 (single isomer, unassigned) [Compound 94]"
0.245,> 30.2,0.398,0.0002,80,0.022,0.031,0.023,–,–,"OCCCNCc1cc(C2CCCN2c2cc(F)cc(F)c2)c2nc(N3CCOCC3)cnc2c1 (single isomer, unassigned) [Compound 102]"
3.16,> 30.2,3.31,0.006,80,–,1,–,0.105,0.062,"Cc1cc(C2CCCN2c2cc(F)cc(F)c2)c2nc(N3CCOCC3)cnc2c1 (single isomer, unassigned) [Compound 106]"
> 30.2,> 30.2,> 30.2,0.363,80 to 90,–,23.4,–,> 0.513,> 0.513,"Cc1cc(C2CCCN2c2cc(F)cc(F)c2)c2nc(N3CCOCC3)cnc2c1 (single isomer, unassigned) [Compound 107]"
20.9,25.1,7.76,0.49,90,–,14.8,–,> 0.513,> 0.513,"CC(Nc1cc(F)cc(F)c1)c1cc(CO)cc2ncc(N3CCOCC3)nc12 (single isomer, unassigned) [Compound 154b]"
3.98,> 30.2,24.5,0.009,80,–,1.23,–,0.209,0.091,"CC(Nc1cc(F)cc(F)c1)c1cc(CNCC(F)(F)F)cc2ncc(N3CCOCC3)nc12 (single isomer, unassigned) [Compound 162]"

# Source: patent US10526316B2, “Quinoxaline and pyridopyrazine derivatives as PI3Kβ inhibitors” (Janssen Pharmaceutica NV, priority 2015, dated 2020)
